Literature values as cited in patent publication US9353170B2, “Long-acting transient polymer conjugates of exendin” (SANOFI-AVENTIS DEUTSCHLAND GMBH, priority 2007, dated 2016).
Where no end group is shown, it is not given here. PEG 2 kDa = polyethylene glycol, 2 kDa

Key:
normoglycaemic mice = details: subcutaneous injection
[1] = incubation in a human plasma model
db/db mice = details: 10 μg/mouse subcutaneously

## PEG40 kDa-FMS-exendin-4: transiently PEGylated Exendin-4 based on a traceless FMS-linker (Shechter et al.)
Normoglycaemic mice
  duration of maintained glucose lowering effect: 24 h
  glucose lowering effect: 30%

## [2-Sulfo-9-fluorenylmethoxycarbonyl]3-exendin-4 [FMS3-exendin-4]
[1]
  time at which cleavage is complete: 40 h
db/db mice
  sustained reduction in blood glucose: 50%
  time of return of blood glucose to baseline value: 45 h

## N-terminal PEGylation of GLP-1 with only PEG2kDa: GLP-1 N-terminally PEGylated with PEG2kDa (Lee et al. 2005) ({PEG 2 kDa}-HAEGTFTSDVSSYLEGQAAKEFIAWLVKGR; not fully specified (C-terminus); ends and bridges not checked; UniProt P01275 98-127, looked up)
Rat pancreas islets
  activity on stimulating insulin release: nearly completely abolished
